Molecules are shown by their SMILES.

In paper PMC10492782, “Exploiting the aggregation propensity of beta-lactamases to design inhibitors that induce enzyme misfolding” (Nature Communications, 2023) one finds Interoretation and Interpretation data, which are given here for eleven compounds.

Type in all cases: cell-based, Escherichia coli
One assay relates to E. coli TEM-30. The note with it: for Interoretation: E. coli TEM-30; for Interpretation: VITEK 2 AST card. The procedure: (§1) Beta-lactamase clinical samples were collected from University Hospitals Leuven and tested for ESBL production using the disk diffusion method. The beta-lactamase reference isolates were purchased from International Health Management Associates (IHMA). Bacterial strains were cultivated in Mueller–Hinton Broth (MHB, Difco) at 37 °C. Whenever required, growth media were supplemented with appropriate antibiotics to the medium or plates (kanamycin 30 µg/mL, L-arabinose 0.5 mg/mL, and IPTG […]). Escherichia coli BL21 (ThermoFisher Scientific, Belgium) was used for cloning and plasmid amplification. For the selection of antibiotic resistant colonies, E. coli carrying plasmids was grown in LB agar plates supplemented with the relevant antibiotic. Bacterial CFU counting was done on blood agar plates (BD Biosciences, Belgium) or MHA agar plates. Species identification and antibiograms for all clinical isolates were performed using MALDI-Tof and VITEK® 2 automated system (BioMérieux, France).
(§2) Khodaparast et al Supplementary data
(§3) study. […] Abbreviations: S,
(§4) susceptible; I, intermediate; R, resistant.

Another assay deals with E. coli NDM5a. Briefly: VITEK 2 AST antimicrobial susceptibility testing. The note with it: for Interoretation: E. coli NDM5a; for Interpretation: VITEK 2 AST card. The procedure: as §1, §2, §3, §4
For the next assay, the system named is E. coli NDM5b. Put plainly: VITEK 2 AST antimicrobial susceptibility testing. The note with it: for Interoretation: E. coli NDM5b; for Interpretation: VITEK 2 AST card. The procedure:
as §1, §2, §3, §4

In another assay the test system is E. coli SHV1 (APHA). Put plainly: VITEK 2 AST antimicrobial susceptibility testing. The note with it: for Interoretation: E. coli SHV154; for Interpretation: VITEK 2 AST card. Here is the method:
as §1, §2, §3, §4

A further assay relates to E. coli TEM-104. Briefly: VITEK 2 AST antimicrobial susceptibility testing. Particulars: for Interoretation: E. coli TEM-104; for Interpretation: VITEK 2 AST card. Here is the method:
as §1, §2, §3, §4

A further assay relates to E. coli TEM-148. Put plainly: VITEK 2 AST antimicrobial susceptibility testing. Particulars: for Interoretation: E. coli TEM-148; for Interpretation: VITEK 2 AST card. The procedure: as §1, §2, §3, §4
Another assay deals with E. coli TEM-16. Briefly: VITEK 2 AST antimicrobial susceptibility testing. The note with it: for Interoretation: E. coli TEM-16; for Interpretation: VITEK 2 AST card. The procedure: as §1, §2, §3, §4
The next assay has as its system E. coli TEM-206. Put plainly: VITEK 2 AST antimicrobial susceptibility testing. The note with it: for Interoretation: E. coli TEM-206; for Interpretation: VITEK 2 AST card. Here is the method: as §1, §2, §3, §4

With `NCC[C@H](O)C(=O)N[C@@H]1C[C@H](N)[C@@H](O[C@H]2O[C@H](CN)[C@@H](O)[C@H](O)[C@H]2O)[C@H](O)[C@H]1O[C@H]1O[C@H](CO)[C@@H](O)[C@H](N)[C@H]1O` [Amikacin], the Interoretation result with E. coli TEM-30, with E. coli NDM5a, in the assay on E. coli NDM5b, with E. coli SHV1 (APHA), in the assay on E. coli TEM-104 and in the assay on E. coli TEM-148 was “S” each time. For the same compound, the Interoretation entry in the assay with E. coli TEM-16 and with E. coli TEM-206 was “S” in each case. The Interpretation entry in the assay with E. coli TEM-30, in the assay with E. coli NDM5a, in the assay with E. coli NDM5b, in the assay with E. coli SHV1 (APHA), in the assay on E. coli TEM-104 and in the assay with E. coli TEM-148 was “S” throughout. Also, in the assay on E. coli TEM-16, the Interpretation entry is given as “S”.
`C=CC1=C(C(=O)O)N2C(=O)[C@@H](NC(=O)/C(=N\OCC(=O)O)c3csc(N)n3)[C@H]2SC1` [Cefixime]: the Interoretation entry is reported as “*I” with E. coli TEM-30; “R” in the assay with E. coli NDM5a; “R” in the assay with E. coli NDM5b; “R” in the assay with E. coli SHV1 (APHA); “S” with E. coli TEM-104; “*I” with E. coli TEM-148. The Interoretation result in the assay with E. coli TEM-16 and in the assay on E. coli TEM-206 was “R” in each case. The Interpretation result was “*I” with E. coli TEM-30; “R” with E. coli NDM5a; “R” in the assay on E. coli NDM5b; “R” in the assay with E. coli SHV1 (APHA); “S” in the assay with E. coli TEM-104; “*I” with E. coli TEM-148. Further, the Interpretation entry with E. coli TEM-16 and with E. coli TEM-206 was “R” in each case.
On to `CO/N=C(\C(=O)N[C@@H]1C(=O)N2C(C(=O)O)=C(COC(C)=O)CS[C@H]12)c1csc(N)n1` [Cefotaxime], for which the Interoretation result in the assay on E. coli TEM-30 was “R”; with E. coli NDM5a it was “R”; in the assay with E. coli NDM5b, “R”; in the assay with E. coli SHV1 (APHA), “R”; in the assay on E. coli TEM-104, “S”; in the assay on E. coli TEM-148, “R”. In addition, the Interoretation entry with E. coli TEM-16 and in the assay on E. coli TEM-206 was “R” each time. Also, the Interpretation result is listed as “R” with E. coli TEM-30; “R” in the assay on E. coli NDM5a; “R” in the assay with E. coli NDM5b; “R” in the assay with E. coli SHV1 (APHA); “S” in the assay with E. coli TEM-104; “R” in the assay with E. coli TEM-148. For the same compound, the Interpretation result with E. coli TEM-16 and with E. coli TEM-206 was “R” each time.
As to `CO[C@@]1(NC(=O)Cc2cccs2)C(=O)N2C(C(=O)O)=C(COC(N)=O)CS[C@@H]21` [Cefoxitin], the Interoretation result was “S” in the assay with E. coli TEM-30; “R” in the assay on E. coli NDM5a; “R” with E. coli NDM5b; “R” in the assay on E. coli SHV1 (APHA); “S” in the assay on E. coli TEM-104; “S” in the assay with E. coli TEM-148. The Interoretation result with E. coli TEM-16 and with E. coli TEM-206 was “S” throughout. Moreover, the Interpretation entry was “S” with E. coli TEM-30; “R” in the assay with E. coli NDM5a; “R” with E. coli NDM5b; “R” with E. coli SHV1 (APHA); “S” in the assay with E. coli TEM-104; “S” with E. coli TEM-148. Besides, the Interpretation result with E. coli TEM-16 and in the assay with E. coli TEM-206 was “S” each time.
`CC(C)(O/N=C(\C(=O)N[C@@H]1C(=O)N2C(C(=O)[O-])=C(C[n+]3ccccc3)CS[C@H]12)c1csc(N)n1)C(=O)O` [Ceftazidime]: the Interoretation result is recorded as “*I” in the assay on E. coli TEM-30; “R” with E. coli NDM5a; “R” with E. coli NDM5b; “R” in the assay with E. coli SHV1 (APHA); “S” with E. coli TEM-104; “*I” in the assay with E. coli TEM-148. In addition, the Interoretation entry in the assay with E. coli TEM-16 and in the assay on E. coli TEM-206 was “R” each time. Moreover, the Interpretation result in the assay with E. coli TEM-30 is given as “*I”; in the assay with E. coli NDM5a, “R”; in the assay on E. coli NDM5b, “R”; in the assay with E. coli SHV1 (APHA), “R”; in the assay with E. coli TEM-104 it was “S”; with E. coli TEM-148 it was “*I”. In addition, the Interpretation result in the assay with E. coli TEM-16 and with E. coli TEM-206 was “R” each time.
As for `CO/N=C(\C(=O)N[C@@H]1C(=O)N2C(C(=O)OC(C)OC(C)=O)=C(COC(N)=O)CS[C@H]12)c1ccco1` (stereo partly shown) [Cefuroxime Axetil], the Interoretation result in the assay on E. coli TEM-30 is “R”; in the assay on E. coli NDM5a it was “R”; with E. coli NDM5b it was “R”; in the assay with E. coli SHV1 (APHA), “R”; in the assay on E. coli TEM-104, “S”; in the assay with E. coli TEM-148 it was “R”. The Interoretation result in the assay with E. coli TEM-16 and in the assay on E. coli TEM-206 was “R” each time. In addition, the Interpretation entry is on record as “R” in the assay with E. coli TEM-30; “R” with E. coli NDM5a; “R” in the assay with E. coli NDM5b; “R” in the assay with E. coli SHV1 (APHA); “S” in the assay with E. coli TEM-104; “R” in the assay with E. coli TEM-148. The Interpretation result in the assay with E. coli TEM-16 and in the assay with E. coli TEM-206 was “R” in each case.
For the compound `CO/N=C(\C(=O)N[C@@H]1C(=O)N2C(C(=O)O)=C(COC(N)=O)CS[C@H]12)c1ccco1` [Cefuroxime], the Interoretation entry is on record as “R” with E. coli TEM-30; “R” in the assay on E. coli NDM5a; “R” in the assay on E. coli NDM5b; “R” with E. coli SHV1 (APHA); “S” in the assay with E. coli TEM-104; “R” with E. coli TEM-148. In addition, the Interoretation result in the assay on E. coli TEM-16 and in the assay with E. coli TEM-206 was “R” in each case. Moreover, the Interpretation entry in the assay with E. coli TEM-30 is listed as “R”; in the assay on E. coli NDM5a, “R”; in the assay with E. coli NDM5b it was “R”; in the assay with E. coli SHV1 (APHA), “R”; in the assay with E. coli TEM-104 it was “S”; with E. coli TEM-148, “R”. Further, the Interpretation result in the assay with E. coli TEM-16 and with E. coli TEM-206 was “R” throughout.
Regarding `CNC(C)C1CCC(N)C(OC2C(N)CC(N)C(OC3OCC(C)(O)C(NC)C3O)C2O)O1` (stereo not shown) [Gentamicin], the Interoretation result is “R” in the assay with E. coli TEM-30; “R” in the assay on E. coli NDM5a; “S” with E. coli NDM5b; “R” in the assay on E. coli SHV1 (APHA); “S” in the assay on E. coli TEM-104; “S” in the assay on E. coli TEM-148. Also, the Interoretation result with E. coli TEM-16 and with E. coli TEM-206 was “S” throughout. The Interpretation result is on record as “R” in the assay with E. coli TEM-30; “R” in the assay on E. coli NDM5a; “S” with E. coli NDM5b; “R” in the assay with E. coli SHV1 (APHA); “S” with E. coli TEM-104; “S” in the assay on E. coli TEM-148. The Interpretation result with E. coli TEM-16 and in the assay on E. coli TEM-206 was “S” in each case.
Consider `C[C@H]1COc2c(N3CCN(C)CC3)c(F)cc3c(=O)c(C(=O)O)cn1c23` [Levofloxacin], for which the Interoretation entry in the assay with E. coli TEM-30 is “R”; in the assay on E. coli NDM5a, “R”; with E. coli NDM5b, “R”; in the assay on E. coli SHV1 (APHA), “S”; in the assay on E. coli TEM-104, “S”; in the assay with E. coli TEM-148, “S”. Further, the Interoretation entry with E. coli TEM-16 is reported as “S”; in the assay on E. coli TEM-206, “R”. The Interpretation entry with E. coli TEM-30 is on record as “R”; with E. coli NDM5a it was “R”; in the assay on E. coli NDM5b, “R”; in the assay with E. coli SHV1 (APHA) it was “S”; in the assay with E. coli TEM-104, “S”; in the assay with E. coli TEM-148, “S”. Further, the Interpretation result with E. coli TEM-16 was “S”; with E. coli TEM-206, “R”.
In the case of `C[C@@H](O)[C@H]1C(=O)N2C(C(=O)O)=C(S[C@@H]3CN[C@H](C(=O)N(C)C)C3)[C@H](C)[C@H]12` [Meropenem], the Interoretation result is on record as “S” with E. coli TEM-30; “R” with E. coli NDM5a; “I” in the assay with E. coli NDM5b; “S” in the assay with E. coli SHV1 (APHA); “S” with E. coli TEM-104; “S” in the assay with E. coli TEM-148. The Interoretation result with E. coli TEM-16 and in the assay on E. coli TEM-206 was “S” throughout. Also, the Interpretation result in the assay with E. coli TEM-30 is on record as “S”; in the assay with E. coli NDM5a it was “R”; in the assay with E. coli NDM5b, “I”; in the assay on E. coli SHV1 (APHA), “S”; in the assay with E. coli TEM-104 it was “S”; in the assay with E. coli TEM-148 it was “S”. Moreover, the Interpretation entry in the assay with E. coli TEM-16 and in the assay on E. coli TEM-206 was “S” each time.
As to `O=C1CN(/N=C/c2ccc([N+](=O)[O-])o2)C(=O)N1` [Nitrofurantoin], the Interoretation result is “S” in the assay on E. coli TEM-30; “R” with E. coli NDM5a; “R” in the assay with E. coli NDM5b; “S” in the assay on E. coli SHV1 (APHA); “S” in the assay with E. coli TEM-104; “S” in the assay on E. coli TEM-148. The Interoretation result with E. coli TEM-16 and in the assay on E. coli TEM-206 was “S” throughout. Also, the Interpretation entry with E. coli TEM-30 is listed as “S”; in the assay with E. coli NDM5a it was “R”; in the assay on E. coli NDM5b it was “R”; with E. coli SHV1 (APHA) it was “S”; in the assay on E. coli TEM-104, “S”; in the assay on E. coli TEM-148, “S”. The Interpretation entry in the assay with E. coli TEM-16 and in the assay on E. coli TEM-206 was “S” throughout.
